Test results from patent US20250277030A1, “ANTI-NAPI2B ANTIBODIES AND METHODS OF USE” (Zymeworks BC Inc., priority 2022, published 2025).

What was measured:
cynomolgus NaPi2b = assay: Flow cytometry binding to HEK293-6e cells transfected with cynomolgus NaPi2b (Example 5); conditions: transfected HEK293-6e cells
Experimental: The binding cross-reactivity of humanized antibody variant v29456 to human, cynomolgus and mouse NaPi2b was assessed by flow cytometry using HEK293-6e transfected cells.
(§1) Briefly, HEK293-6e cells were transfected for ˜24 hours to transiently express human NaPi2b, cynomolgus or mouse NaPi2b, at 1 μg of DNA per 1 million cells. Following transfection, 50,000 cells per well were seeded in V-bottom 96-well plates and incubated with 200 nM of primary antibody for 18-24 hours at 4° C. to prevent internalization. Post-incubation, cells were washed and stained with anti-Human IgG Fc AF647 conjugate (Jackson Immuno Research Labs, West Grove, PA, Cat. No. 109-605-098, Lot. No. 124868) at 4° C. for 1 hour. Following staining and washing, fluorescence was detected by flow cytometry on BD LSRFortessa™ Cell Analyzer (BD Biosciences, Franklin Lake, NJ) with 10,000 minimum events collected per well. The AF647/APC-A GeoMean (fluorescence signal geometric mean, proportional to anti-Human AF647 binding) was calculated for the live singlet cell population for each primary antibody using FlowJo™ v8 software (BD Biosciences, Franklin Lake, NJ). The Bmax and Kd of each primary antibody were calculated using GraphPad Prism Version 9 (GraphPad Software, San Diego, CA)

NCI-H441 cells = assay: Internalization by flow cytometry in NCI-H441 cells; format: cell-based, human; conditions: antibody 10 nM
Experimental: Briefly, antibodies were fluorescently labeled by coupling to a Fab fragment AF488 conjugate targeting anti-Human IgG Fe (Jackson Immuno Research Labs, West Grove, PA; Cat. No. 109-547-008) at a 1:1 molar ratio in PBS pH 7.4 (Thermo Fisher Scientific, Waltham, MA; Cat. No. 10010-023), for 24 hours at 4° C. Cells were seeded at 50,000 cells/well in RPMI 1640, ATCC modification (Thermo Fisher Scientific, Waltham, MA) supplemented with 10% fetal bovine serum (Thermo Fisher Scientific, Waltham, MA) in 48-well plates and incubated overnight under standard culturing conditions (37° C./5% CO2) to allow attachment. […] Following incubation, cells were dissociated, washed, and surface AF488 fluorescence was quenched using an anti-AF488 antibody (Life Technologies, Carlsbad, CA; Cat. No. A-11094) at 100 nM for 30 minutes at 4° C. […] (internalized fluorescence) was detected by flow cytometry on a BD LSRFortessa™ Cell Analyzer (BD Biosciences, Franklin Lake, NJ) with 1,000 minimum events collected per well. The AF488/FITC-A GeoMean (fluorescence signal geometric mean, proportional to anti-Human Fab AF488 labelling) was calculated for the live single cell population using FlowJo™ Version 10.8.1 (BD Biosciences, Franklin Lake, NJ) and plotted using GraphPad Prism Version 9 (GraphPad Software, San Diego, CA).

[1] = target: T1, NaPi2b expressed on IGROV-1 cells (Homo sapiens, UniProt O95436); assay: Cellular binding of antibody and ADCs to IGROV-1 cells by flow cytometry (Example 14)
T1 construct: IGROV-1 cells express endogenous NaPi2b at a high level; endogenous in cells; host or cells: IGROV-1
T1 sequence (O95436 1-690): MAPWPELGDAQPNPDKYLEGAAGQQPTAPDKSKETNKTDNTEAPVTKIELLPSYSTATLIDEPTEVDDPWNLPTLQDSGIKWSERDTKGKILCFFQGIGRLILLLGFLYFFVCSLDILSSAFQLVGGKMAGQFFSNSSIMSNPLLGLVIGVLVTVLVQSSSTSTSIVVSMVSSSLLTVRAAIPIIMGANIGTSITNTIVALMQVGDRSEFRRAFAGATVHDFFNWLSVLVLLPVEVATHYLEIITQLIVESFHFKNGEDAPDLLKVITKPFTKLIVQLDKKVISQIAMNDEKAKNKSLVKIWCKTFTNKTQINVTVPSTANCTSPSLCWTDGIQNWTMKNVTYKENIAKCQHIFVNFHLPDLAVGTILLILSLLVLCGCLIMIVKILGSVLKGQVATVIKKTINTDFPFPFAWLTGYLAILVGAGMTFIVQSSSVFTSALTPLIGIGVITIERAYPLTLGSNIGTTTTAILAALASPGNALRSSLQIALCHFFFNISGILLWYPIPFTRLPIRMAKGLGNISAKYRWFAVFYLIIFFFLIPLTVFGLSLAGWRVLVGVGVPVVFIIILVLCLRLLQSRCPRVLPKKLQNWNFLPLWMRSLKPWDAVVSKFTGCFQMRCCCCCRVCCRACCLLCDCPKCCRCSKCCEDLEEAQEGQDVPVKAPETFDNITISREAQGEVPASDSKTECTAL
Experimental: as §1
(§2) The ability of ADCs to bind to cells expressing NaPi2b was assessed. […] Binding to endogenous high NaPi2b-expressing cell lines IGROV-1 and HCC-78 was assessed by flow cytometry according to methods described in Example 5.

[2] = target: T2, NaPi2b expressed on HCC-78 cells (Homo sapiens, UniProt O95436); assay: Cellular binding of antibody and ADCs to HCC-78 cells by flow cytometry (Example 14)
T2 construct: endogenous in cells; host or cells: HCC-78
T2 sequence (O95436 1-690): T1 sequence (O95436 1-690)
Experimental: as §1, §2

[3] = target: T1, NaPi2b expressed on IGROV-1 cells; assay: Cellular binding to IGROV-1 cells by flow cytometry (Example 19); conditions: NB = no binding (apparent Kd >150 nM)
Experimental: Briefly, cells were seeded at 50,000 cells/well in conical-bottom 96-well plates and treated with test antibody for 24 hours at 4° C. to prevent internalization. Palivizumab (anti-RSV antibody, v22277) was included as a negative control. […] Following incubation, cells were washed and stained with anti-Human IgG Fc AF647 conjugate (Jackson Immuno Research Labs, West Grove, PA; Cat. No. 109-605-098) at 4° C. for 30 min. Following incubation and washing, fluorescence was detected by flow cytometry on a BD LSRFortessa™ Cell Analyzer (BD Biosciences, Franklin Lake, NJ) with 1,000 minimum events collected per well. The AF647/APC-A GeoMean (fluorescence signal geometric mean, proportional to anti-Human AF647 binding) was calculated for the live cell population using FlowJo™ Version 10.8.1 (BD Biosciences, Franklin Lake, NJ) and plotted for each test antibody using GraphPad Prism Version 9 (GraphPad Software, San Diego, CA).
The ability of the humanized antibody variants v38591 and v29456 to bind to NaPi2b expressed on cells was assessed on endogenous NaPi2b-expressing tumor cell lines IGROV-1 (ovarian adenocarcinoma) and TOV-21G (ovarian carcinoma) by flow cytometry. IGROV-1 and TOV-21G cells express endogenous NaPi2b at high and moderate levels, respectively, as described in Example 10.
Cellular binding was performed according to methods described in Example 13.

Chain of cynomolgus NaPi2b (as listed by the source): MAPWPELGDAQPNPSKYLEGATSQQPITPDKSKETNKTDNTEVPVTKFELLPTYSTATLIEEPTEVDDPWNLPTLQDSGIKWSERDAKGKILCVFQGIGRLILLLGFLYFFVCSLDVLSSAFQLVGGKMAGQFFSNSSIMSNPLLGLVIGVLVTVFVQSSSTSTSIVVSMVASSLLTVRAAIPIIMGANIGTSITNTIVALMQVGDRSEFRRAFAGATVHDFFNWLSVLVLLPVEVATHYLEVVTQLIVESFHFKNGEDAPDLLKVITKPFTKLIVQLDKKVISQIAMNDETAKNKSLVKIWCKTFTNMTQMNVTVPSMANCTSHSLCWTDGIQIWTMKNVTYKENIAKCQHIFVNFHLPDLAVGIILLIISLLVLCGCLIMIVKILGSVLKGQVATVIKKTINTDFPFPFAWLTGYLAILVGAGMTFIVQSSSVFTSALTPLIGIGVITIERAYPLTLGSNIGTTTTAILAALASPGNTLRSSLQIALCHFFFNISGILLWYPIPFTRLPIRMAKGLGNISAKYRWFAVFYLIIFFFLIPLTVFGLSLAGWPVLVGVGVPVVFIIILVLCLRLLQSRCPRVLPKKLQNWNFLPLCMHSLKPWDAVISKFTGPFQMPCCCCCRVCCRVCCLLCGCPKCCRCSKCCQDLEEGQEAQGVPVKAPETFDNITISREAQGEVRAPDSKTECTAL

v22277: anti-RSV antibody palivizumab, negative control; has a heterodimeric Fc [reference compound]
Binding to cynomolgus NaPi2b, in words (cynomolgus NaPi2b): did not bind | Internalized Fluorescence Fold-Over Palivizumab (NCI-H441 cells; NCI-H441, 5 hrs): 1.0 fold | Internalized Fluorescence Fold-Over Palivizumab (NCI-H441 cells; NCI-H441, 24 hrs): 1.0 fold | Binding to IGROV-1 cells, in words [1]: did not bind | Binding to HCC-78 cells, in words [2]: did not bind | Kd [3]: > 150 nM
